Data: ChEMBL document CHEMBL4699611, “Synthesis and evaluation of HIF-1α inhibitory activities of novel panaxadiol derivatives” (Bioorg Med Chem Lett, 2020)

Key:
Format in all cases: cell-based
[1] = target: Hypoxia-inducible factor 1-alpha (Homo sapiens, UniProt Q16665); test: Inhibition of hypoxia-induced HIF1alpha transcriptional activity in human Hep3B cells co-transfected with luciferase reporter plasmid containing six copies of HREs and pRL-CMV vector assessed as reduction in luciferase activity incubated for 24 hrs under hypoxic condition by HRE-dependent dual luciferase reporter gene assay
[2] = test system: Hep 3B2; test: Cytotoxicity against human Hep3B cells assessed as reduction in cell viability incubated for 24 hrs under normaxic condition by MTT assay
[3] = test system: Hep 3B2; test: Cytotoxicity against human Hep3B cells assessed as reduction in cell viability at 30 uM incubated for 24 hrs in presence of 20% O2 by MTT assay; settings: hep 3b2, 24 h

Structure (SMILES)	IC50 [1] [µM]	IC50 [2] [µM]	inhibition [1]	Activity [3]
CC1(C)CCC[C@](C)([C@H]2CC[C@]3(C)[C@@H]2[C@H](OC(=O)Cn2nnnc2-c2ccc4c(c2)OCO4)C[C@@H]2[C@@]4(C)CCC(=O)C(C)(C)[C@@H]4CC[C@]23C)O1	40.9	> 100		
CC1(C)CCC[C@](C)([C@H]2CC[C@]3(C)[C@@H]2[C@H](O)C[C@@H]2[C@@]4(C)CC(=C\c5cccc(F)c5)/C(=N\NC(N)=O)C(C)(C)[C@@H]4CC[C@]23C)O1	3.5	5.2		
CC1(C)CCC[C@](C)([C@H]2CC[C@]3(C)[C@@H]2[C@H](OC(=O)CNc2cccc(-c4nnn[nH]4)c2)C[C@@H]2[C@@]4(C)CCC(=O)C(C)(C)[C@@H]4CC[C@]23C)O1	> 100	> 100		
CC1(C)CCC[C@](C)([C@H]2CC[C@]3(C)[C@@H]2[C@H](O)C[C@@H]2[C@@]4(C)CC[C@H](O)C(C)(C)[C@@H]4CC[C@]23C)O1 [PANAXADIOL]	9.1	31.7		
CC1(C)CCC[C@](C)([C@H]2CC[C@]3(C)[C@@H]2[C@H](O)C[C@@H]2[C@@]4(C)CC/C(=N\Nc5ccc(F)cc5F)C(C)(C)[C@@H]4CC[C@]23C)O1	12.8	> 100		
CC1(C)CCC[C@](C)([C@H]2CC[C@]3(C)[C@@H]2[C@H](O)C[C@@H]2[C@@]4(C)CC(=C\c5ccc(Cl)cc5)/C(=N\NC(N)=S)C(C)(C)[C@@H]4CC[C@]23C)O1	> 100	> 100		
Cc1cccc(N/N=C2\CC[C@]3(C)[C@H]4C[C@@H](O)[C@@H]5[C@@H]([C@@]6(C)CCCC(C)(C)O6)CC[C@@]5(C)[C@]4(C)CC[C@H]3C2(C)C)c1	56.5	> 100		
CC1(C)CCC[C@](C)([C@H]2CC[C@]3(C)[C@@H]2[C@H](OC(=O)Cn2nnnc2-c2ccc(Cl)cc2)C[C@@H]2[C@@]4(C)CCC(=O)C(C)(C)[C@@H]4CC[C@]23C)O1	12.4	42.9		
CC1(C)CCC[C@](C)([C@H]2CC[C@]3(C)[C@@H]2[C@H](O)C[C@@H]2[C@@]4(C)CC(=C\c5ccccc5F)/C(=N\NC(N)=O)C(C)(C)[C@@H]4CC[C@]23C)O1	5.9	5.6		
CC1(C)CCC[C@](C)([C@H]2CC[C@]3(C)[C@@H]2[C@H](OC(=O)Cn2nnnc2-c2ccccc2)C[C@@H]2[C@@]4(C)CCC(=O)C(C)(C)[C@@H]4CC[C@]23C)O1	> 100	> 100		
Cc1ccc(/C=C2\C[C@]3(C)[C@H]4C[C@@H](O)[C@@H]5[C@@H]([C@@]6(C)CCCC(C)(C)O6)CC[C@@]5(C)[C@]4(C)CC[C@H]3C(C)(C)\C2=N\NC(N)=O)cc1	9.8	4.1		
CC1(C)CCC[C@](C)([C@H]2CC[C@]3(C)[C@@H]2[C@H](O)C[C@@H]2[C@@]4(C)CC/C(=N\Nc5ccccc5Cl)C(C)(C)[C@@H]4CC[C@]23C)O1	> 100	> 100		
CC1(C)CCC[C@](C)([C@H]2CC[C@]3(C)[C@@H]2[C@H](O)C[C@@H]2[C@@]4(C)CC(=C\c5ccc(F)cc5)/C(=N\NC(N)=S)C(C)(C)[C@@H]4CC[C@]23C)O1	9	24.1		
CC1(C)CCC[C@](C)([C@H]2CC[C@]3(C)[C@@H]2[C@H](O)C[C@@H]2[C@@]4(C)CC/C(=N\Nc5cccc([N+](=O)[O-])c5)C(C)(C)[C@@H]4CC[C@]23C)O1	61.2	> 100		
CC1(C)CCC[C@](C)([C@H]2CC[C@]3(C)[C@@H]2[C@H](OC(=O)CNc2nnn[nH]2)C[C@@H]2[C@@]4(C)CCC(=O)C(C)(C)[C@@H]4CC[C@]23C)O1	36.2	> 100		
CC1(C)CCC[C@](C)([C@H]2CC[C@]3(C)[C@@H]2[C@H](O)C[C@@H]2[C@@]4(C)CC/C(=N\Nc5ccccc5F)C(C)(C)[C@@H]4CC[C@]23C)O1	10.1	> 100		

Structure (SMILES)	IC50 [1] [µM]	IC50 [2] [µM]	inhibition [1]	Activity [3]
CC1(C)CCC[C@](C)([C@H]2CC[C@]3(C)[C@@H]2[C@H](O)C[C@@H]2[C@@]4(C)CC(=C\c5ccc(F)cc5)/C(=N\NC(=N)N)C(C)(C)[C@@H]4CC[C@]23C)O1	4.8	> 100		
CC1(C)CCC[C@](C)([C@H]2CC[C@]3(C)[C@@H]2[C@H](O)C[C@@H]2[C@@]4(C)CC/C(=N\Nc5ccc(F)cc5)C(C)(C)[C@@H]4CC[C@]23C)O1	21.4	> 100		
CC1(C)CCC[C@](C)([C@H]2CC[C@]3(C)[C@@H]2[C@H](O)C[C@@H]2[C@@]4(C)CC/C(=N\Nc5ccc(Cl)cc5)C(C)(C)[C@@H]4CC[C@]23C)O1	26	> 100		
CC1(C)CCC[C@](C)([C@H]2CC[C@]3(C)[C@@H]2[C@H](O)C[C@@H]2[C@@]4(C)CC(=C\c5ccc(O)cc5)/C(=N\NC(=N)N)C(C)(C)[C@@H]4CC[C@]23C)O1	6.2	6.3		
CC1(C)CCC[C@](C)([C@H]2CC[C@]3(C)[C@@H]2[C@H](O)C[C@@H]2[C@@]4(C)CC/C(=N\Nc5cccc(Cl)c5)C(C)(C)[C@@H]4CC[C@]23C)O1	36.7	> 100		
CC1(C)CCC[C@](C)([C@H]2CC[C@]3(C)[C@@H]2[C@H](O)C[C@@H]2[C@@]4(C)CC(=C\c5ccc(Cl)cc5)/C(=N\NC(N)=O)C(C)(C)[C@@H]4CC[C@]23C)O1	5.5	11.3		
CC1(C)CCC[C@](C)([C@H]2CC[C@]3(C)[C@@H]2[C@H](O)C[C@@H]2[C@@]4(C)CC/C(=N\Nc5cccc(F)c5)C(C)(C)[C@@H]4CC[C@]23C)O1	67	> 100		
COc1ccc(/C=C2\C[C@]3(C)[C@H]4C[C@@H](O)[C@@H]5[C@@H]([C@@]6(C)CCCC(C)(C)O6)CC[C@@]5(C)[C@]4(C)CC[C@H]3C(C)(C)\C2=N\NC(=N)N)cc1	5.8	6.1		
CC1(C)CCC[C@](C)([C@H]2CC[C@]3(C)[C@@H]2[C@H](O)C[C@@H]2[C@@]4(C)CC/C(=N\Nc5ccc(Cl)cc5Cl)C(C)(C)[C@@H]4CC[C@]23C)O1	3.7	> 100	Dose-dependent effect	Non-Toxic
Cc1ccc(/C=C2\C[C@]3(C)[C@H]4C[C@@H](O)[C@@H]5[C@@H]([C@@]6(C)CCCC(C)(C)O6)CC[C@@]5(C)[C@]4(C)CC[C@H]3C(C)(C)\C2=N\NC(=N)N)cc1	37.7	11.3		
Cc1ccccc1N/N=C1\CC[C@]2(C)[C@H]3C[C@@H](O)[C@@H]4[C@@H]([C@@]5(C)CCCC(C)(C)O5)CC[C@@]4(C)[C@]3(C)CC[C@H]2C1(C)C	24.9	> 100		
Cc1ccc(/C=C2\C[C@]3(C)[C@H]4C[C@@H](O)[C@@H]5[C@@H]([C@@]6(C)CCCC(C)(C)O6)CC[C@@]5(C)[C@]4(C)CC[C@H]3C(C)(C)\C2=N\NC(N)=S)cc1	6.1	43.1		
COc1ccc(-c2nnnn2CC(=O)O[C@@H]2C[C@@H]3[C@@]4(C)CCC(=O)C(C)(C)[C@@H]4CC[C@@]3(C)[C@]3(C)CC[C@H]([C@@]4(C)CCCC(C)(C)O4)[C@@H]23)cc1	> 100	> 100		
Cc1ccc(N/N=C2\CC[C@]3(C)[C@H]4C[C@@H](O)[C@@H]5[C@@H]([C@@]6(C)CCCC(C)(C)O6)CC[C@@]5(C)[C@]4(C)CC[C@H]3C2(C)C)cc1	7.1	> 100		
CC1(C)CCC[C@](C)([C@H]2CC[C@]3(C)[C@@H]2[C@H](O)C[C@@H]2[C@@]4(C)CC(=C\c5ccc(F)cc5)/C(=N\NC(N)=O)C(C)(C)[C@@H]4CC[C@]23C)O1	11.7	> 100		
